In patent US6410587B1, “Compounds and therapies for the prevention of vascular and non-vascular pathologies” (NeoRx Corporation, priority 1997, dated 2002):
Marks after values point to notes of the source that are not given here.

Key:
[1] = cited from earlier work; for covalent (hepatic) DNA adducts: rat, in vivo; for long-term carcinogenicity: rats
[2] = tested on: TGF-beta; experiment: TGF-beta production by human VSMCs in culture; type: cell-based; conditions: cultured VSMCs
Procedure: The amount of TGF-beta present in medium conditioned on VSMCs in the presence and absence of aspirin was measured by ELISA.
The ED50 for TGF-beta production of the complex (Cu Aspirinate) was determined in cultured rat and human VSMCs.

[3] = TMX 40 mg/day for 10 days in TVD patients: plasma lipids, Lp(a), PAI-1
From the text: Patients with triple vessel disease (TVD) were defined as individuals having at least 50% stenosis of all three coronary arteries by angiography, which was confirmed by two independent observers. All had stable angina, with no myocardial infarction in the previous three months. Patients with unstable angina, poor left ventricular function, ventricular hypertrophy or diabetes were excluded.
Blood samples were taken and plasma prepared before and during the treatment period, and these samples were analyzed for TGF-beta, Lp(a), PAI-1 and lipoprotein profiles. Patients were asked to fast overnight prior to samples of blood being drawn between 9 am. and 10 a.m. the following morning. Blood samples were drawn by venepuncture of the antecubital vein with no tourniquet applied using a 21 gauge butterfly needle. Half the blood was allowed to clot for 2 hours at room temperature in polypropylene tubes. The clot was spun down (1,500×g; 15 minutes) and aliquots of the serum was stored at −100° C. The remaining blood was dispensed into Diatube H tubes (Diagnostica Stago) and cooled on ice for 15 minutes. Blood cells and platelets were spun down (6,000×g; 30 minutes) and the middle third of the supernatant was taken, carefully avoiding disturbing the pellet. This platelet-poor plasma was stored in aliquots at −100° C. until assayed.
Total plasma triglyceride, total plasma cholesterol, HDL-cholesterol, LDL-cholesterol and VLDL-cholesterol were routinely assayed in all patients.

[4] = tested on: NFkB; experiment: NFkB translocation (p65 immunostaining) and kB-luciferase reporter activity in human SMCs; type: cell-based
From the text: In cells which had been transfected with a reporter construct which has three consensus kB DNA elements fused to the luciferase gene, the amount of light which was produced when the cell lysate was exposed to luciferin and ATP was proportional to NFkB activity.

[5] = tested on: TGF-beta; experiment: TMX 40 mg/day for 10 days in TVD patients: plasma TGF-beta; type: in vivo, human
Procedure: Active plus acid-activatable latent (a+1) TGF-beta levels were assayed in platelet-poor plasma using seven different assay methods. There has been debate in the literature regarding the most appropriate way to measure (a+1) TGF-beta, so to avoid difficulties specific to any particular measurement method all the available methods which have been described in the literature were used. The seven methods are:
(A) A sandwich ELISA using BDA19 and BDA5 (R&D Systems) antibodies with no activation step required.
(B) The Quantikine TGF-beta1 ELISA kit (R&D Systems) using acid/urea as the activation buffer in accordance with the manufacturer's instructions
(C) The Quantikine TGF-beta1 ELISA kit (R&D Systems) using acid alone as the activation buffer
(D) The BioTrak TGF-beta1 ELISA kit (Amersham International) using acid/urea as the activation buffer
(E) The BioTrak TGF-beta1 ELISA kit (Amersham International) using acid alone as the activation buffer in accordance with the manufacturers instructions
(F) The TGF-beta1 ELISA kit (Genzyme Diagnostics) using acid/urea as the activation buffer in accordance with the manufacturer's instructions
(G) The TGF-beta1 ELISA kit Promega Corporation) using acid alone as the activation buffer in accordance with the manufacturer's instructions
Replicate aliquots of plasma taken from the same individuals at the same time were assayed by all seven methods.
The partitioning of TGF-beta between the lipoproteins and plasma proteins was analyzed by separating the lipoprotein fraction (d<[…]) from the plasma proteins by density ultracentrifugation as described hereinabove. TGF-beta levels were assayed in both fractions using the Quantikine ELISA kit, following release and activation of TGF-beta with acetic acid and urea in accordance with the manufacturer's instructions. None of the three TGF-beta ELISAs used here detected TGF-beta in the lipoprotein fraction without prior extraction/activation with acetic acid/urea.

[6] = Serum lipid and lipoprotein profile of apoE knockout mice; type: in vivo, mouse; conditions: apo(E)−/− mouse
Procedure: The effect of each treatment on the lipid profile of each group of mice was determined by measuring the cholesterol and triglyceride. Blood from a terminal bleed was collected in a polypropylene tube, allowed to clot at room temperature for 2 hours and then spun (1,000×g; 5 minutes). The serum supernatant was aliquoted and stored at −20° C. until assayed. Total cholesterol and total triglycerides were determined for each mouse using the cholesterol oxidase and glycerol kinase UV end-point enzymatic methods respectively (Sigma Diagnostics).

[7] = tested on: apoE knockout mice; experiment: Lipid lesion development in aortic sinus of apoE knockout mice (Oil Red O); conditions: mouse aorta
Procedure: To determine the efficacy of combination therapy, and to provide evidence for synergism between aspirin and fish oil, 8-week-old female apoE knockout mice were fed aspirin or fish oil, or both, to assess the cardioprotective effects of modulating different components of the TGF-beta pathway.
Group A mice (n=10) were sacrificed at day 0. Group B mice (n=10) were fed normal chow. […] Group D mice (n=10) were fed chow containing 33 mg/kg/day fish oil (200 μg Pulse cod liver oil/g food, Seven Seas Ltd., which contains 0.9 g eicosapentaenoic acid (EPA), and 0.3 g docosahexaenoic acid (DHA)) and 3 mg/kg/day aspirin dissolved in water. Group E mice (n=10) were fed chow containing 33 mg/kg/day fish oil. Group F mice (n=10) were fed chow containing Zocor (simvastatin; Zocor tablets, Merck, Sharpe & Dohme) at 400 μg/kg/day (2 μg/g food).
Groups B-F were fed these regimens for 87 days. All mice were weighed daily for the first week and weekly thereafter. Food and water consumption over a 24 hour period were measured daily for the first 7 days and weekly thereafter.
After 87 days, mice in groups B-F were fasted overnight and then sacrificed. Serum, heart, lungs and aorta samples were collected at the time of sacrifice. The heart, lungs and aorta were removed from each mouse and rinsed in PBS, dabbed dry on tissue and embedded in Cryo-M-bed embedding medium (Bright Instruments, Huntington, U.K.) before snap freezing in liquid nitrogen. Frozen sections (4 μm thickness) of the aortic sinus region were prepared from the heart/lung/aorta blocks according to the sectioning strategy of Paigen et al. (Arteriosclerosis, 10, 316 (1990)). Sections on 5% gelatin-coated slides were stained for neutral lipid by the Oil Red O technique and counter-stained with fast green (Grainger et al., Nature Med., 1, 1067 (1995)).
The development of lipid-filled vascular lesions was determined by the quantitation of oil red O staining for neutral lipid deposited in the aortic sinus region. The area of lipid accumulation was measured using a calibrated microscope eye-piece, such that lipid droplets<50 μm^2 were ignored and contiguous regions of lipid staining>500 μm in area were classified as lesions.

[8] = tested on: GR; experiment: MMTV LTR-CAT reporter in stably transfected SMCs; type: cell-based
From the text: Because ER. interacts with NFkB transcription factor complexes in a similar manner to that for GR, agents which modulate ER/NFkB interaction should modulate the inflammatory response without activating GR. To test this hypothesis, SMCs in DMEM+10% FCS were transfected with a vector comprising the MMTV LTR promoter coupled to the chloramphenicol acetyl transferase (CAT) gene and the neomycin resistance gene (neo). A stably transfected line was selected using geneticin. When these cells were treated with dexamethasone, expression of the CAT gene was elevated 3.7±0.7 fold. […] Thus, ER/NFkB modulators would be expected to circumvent the undesirable side-effect profile associated with direct transcriptional activation by GR.

[9] = rats; cited from earlier work
[10] = biological target: T1, recombinant extracellular domain of the type II TGF-beta receptor (R2X) (Homo sapiens, UniProt P37173); conditions: no lipoprotein; previously determined; cited from earlier work
T1 construct: the recombinant extracellular domain of the type II TGF-beta receptor (R2X)
T1 sequence (P37173 23-166 limits assumed): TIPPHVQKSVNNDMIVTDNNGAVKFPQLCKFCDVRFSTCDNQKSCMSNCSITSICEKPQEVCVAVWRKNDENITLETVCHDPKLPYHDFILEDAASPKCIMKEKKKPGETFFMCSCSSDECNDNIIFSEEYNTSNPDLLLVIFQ

[11] = biological target: T1, recombinant extracellular domain of the type II TGF-beta receptor (R2X); experiment: Binding of recombinant TGF-beta to R2X (ELISA); conditions: lipoprotein equivalent to 3 mM total cholesterol added; maximal value
Procedure: To determine whether the TGF-beta associated with lipoprotein particles was able to bind to the type II TGF-beta signaling receptor and exert biological activity in vitro, the binding of recombinant TGF-beta to R2X was measured in the absence and presence of increasing concentrations of lipoprotein purified from the plasma of an individual with <1 ng/ml TGF-beta in plasma (individual I, Table 1). If the lipoprotein-associated fraction of TGF-beta is unavailable for binding, lipoproteins prepared from an individual with a very low plasma concentration of TGF-beta would be expected to reduce the binding of recombinant active TGF-beta to its receptors. The half maximal (ka) binding of recombinant TGF-beta to the recombinant extracellular domain of the type II TGF-beta receptor was previously determined to be 17±3 ng/ml (R2X; Grainger et al., Nature, 270, 460 (1994); Grainger et al., Clin. Chim. Acta, 235, 11 (1995)).
To measure the binding of TGF-beta to its receptor, the recombinant extracellular domain of the type II TGF-beta receptor (R2X), was coated onto ELISA plates (1 μg/well, Maxisorp plates, Gibco BRL). Wells were washed 3 times quickly in TBS and blocked with TBS containing 3% bovine serum albumin (BSA, fatty-acid free; Sigma) for 30 minutes. […] The amount of bound TGF-beta was detected with antibody BDA5 (R&D Systems) as previously described by Grainger et al., Clin. Chim. […]

[12] = tested on: mink lung epithelial (MvLu) cells; experiment: Inhibition of MvLu cell proliferation; type: cell-based
From the text: It has previously been shown that TGF-beta inhibits the proliferation of mink lung epithelial (MvLu) cells in culture. […] J. Physiol., 265, C571 (1993). […] Addition of lipoprotein purified from the plasma of individual I caused a dose-dependent increase in the ID50 of TGF-beta.

[13] = TNF-alpha (20 ng/ml) and tamoxifen (5 μM) simultaneously

Compound: CC/C(=C(/c1ccc(I)cc1)c1ccc(OCCN(C)C)cc1)c1ccccc1 [4-iodotamoxifen]
- covalent (hepatic) DNA adducts [1]: absence of DNA adducts

Compound: CC(=O)Oc1ccccc1C(=O)[O-].CC(=O)Oc1ccccc1C(=O)[O-].[Cu+2] [Cu aspirinate, copper II (acetyl salicylate)2]
- potency at stimulating TGF-beta relative to aspirin [2]: almost two orders of magnitude more potent

Compound: CC/C(=C(\c1ccccc1)c1ccc(OCCN(C)C)cc1)c1ccccc1 [TMX, trans-2-[4-(1,2-diphenyl-1-butenyl)phenoxy]-N,N-dimethylethylamine]
- HDL-cholesterol ([3]; Day 10): 0.77 ± 0.04 mM
- LDL-cholesterol ([3]; Day 10): 4.16 ± 0.25 mM
- Lipoprotein(a) ([3]; Day 10): 42.4 ± 9.5 mg/dL
- Plasma PAI-I antigen ([3]; Day 10): 35.9 ± 5.4 ng/mL
- Total plasma triglycerides ([3]; Day 10): 2.28 ± 0.35 mM
- VLDL-cholesterol ([3]; Day 10): 0.84 ± 0.11 mM
- Total plasma cholesterol ([3]; Day 10, mean ± standard error, 15 patients): 5.95 ± 0.29 mM
- concentration of HDL-cholesterol, change ([3]; after 10 days): unchanged
- concentration of LDL-cholesterol, change ([3]; after 10 days): unchanged
- decrease in total plasma cholesterol below baseline ([3]; after 10 days): 6%
- reduction of cholesterol in the VLDL fraction below baseline ([3]; after 10 days): 18%
- lowering of total plasma triglyceride concentration ([3]; after 10 days, not statistically significant (p=0.22)): 18%
- decrease in plasma concentration of Lp(a) ([3]; day 3 vs baseline): 27%
- reduction in Lp(a) concentration ([3]; day 10 vs baseline): 31%
- long-term carcinogenicity [1]: liver carcinogenicity
- inhibition at 5 µM ([4]; Homo sapiens, read-out: inhibition of TNF-alpha-induced NFkB activity): 86 ± 12%
- NFkB translocated to the nucleus [4, 13]: less than 10%
- stimulation of NFkB activity [4, 13]: less than 3 fold
- change in NFkB activity ([4]; tamoxifen alone): no detectable change
- Plasma (a + 1) TGF-β, Method (A) ([5]; Day 10, BDA19/BDA5 sandwich ELISA): 7.7 ± 1.5 ng/mL
- Plasma (a + 1) TGF-β, Method (E) ([5]; Day 10, BioTrak, acid alone): 2.3 ± 0.1 ng/mL
- Plasma (a + 1) TGF-β, Method (D) ([5]; Day 10, BioTrak, acid/urea): 2.4 ± 0.1 ng/mL
- Plasma (a + 1) TGF-β, Method (F) ([5]; Day 10, Genzyme, acid/urea): 5.2 ± 0.3 ng/mL
- Plasma (a + 1) TGF-β, Method (G) ([5]; Day 10, Promega, acid alone): 0.2 ± 0.1 ng/mL
- Plasma (a + 1) TGF-β, Method (C) ([5]; Day 10, Quantikine, acid alone): 0.62 ± 0.07 ng/mL
- Plasma (a + 1) TGF-β, Method (B) ([5]; Day 10, Quantikine, acid/urea): 1.2 ± 0.2 ng/mL
- change in plasma (a + 1) TGF-β, Method (A) ([5]; Day 10 vs Day 0): (+24%)
- change in plasma (a + 1) TGF-β, Method (B) ([5]; Day 10 vs Day 0): (+71%)
- change in plasma (a + 1) TGF-β, Method (C) ([5]; Day 10 vs Day 0): (+148%)
- change in plasma (a + 1) TGF-β, Method (D) ([5]; Day 10 vs Day 0): (+20%)
- change in plasma (a + 1) TGF-β, Method (E) ([5]; Day 10 vs Day 0): (+29%)
- change in plasma (a + 1) TGF-β, Method (F) ([5]; Day 10 vs Day 0): (+59%)
- change in plasma (a + 1) TGF-β, Method (G) ([5]; Day 10 vs Day 0): (+100%)
- proportion of plasma TGF-beta that is lipoprotein-associated ([5]; after 10 days of TMX therapy, Quantikine ELISA): 25±3%
- median increase in (a+1) TGF-beta ([5]; by day 10): 59%
- lowering of VLDL [6]: seven fold
- % Lesion Suppression [7]: 99* %

Compound: CN(C)CCOc1ccc(/C(=C(/CCCl)c2ccccc2)c2ccccc2)cc1 [Toremifene, toremifene]
- covalent (hepatic) DNA adducts [1]: very low level
- long-term carcinogenicity [1]: non-carcinogenic

Compound: C[C@@H]1C[C@H]2[C@@H]3CCC4=CC(=O)C=C[C@]4(C)[C@@]3(F)[C@@H](O)C[C@]2(C)[C@@]1(O)C(=O)CO [dexamethasone]
- elevation of expression of the CAT gene [8]: 3.7±0.7 fold

Compound: CC/C(=C(\c1ccc(I)cc1)c1ccc(OCCN2CCCC2)cc1)c1ccccc1 [idoxifene, (E)-1-[4-[2-(N-pyrrolidino)ethoxy]phenyl]-1-(4-iodophenyl)-2-phenyl-1-butene]
- covalent (hepatic) DNA adducts [1]: absence of DNA adducts
- residual estrogenic activity compared with TMX [9]: reduced residual estrogenic activity

Compound: TNF-alpha
- NFkB translocated to the nucleus ([4]; 20 ng/ml, 6 hours at 37° C.): > 80%
- increase in NFkB activity ([4]; 20 ng/ml, 6 hours, luciferase reporter): 19 fold

Compound: recombinant TGF-beta: recombinant active TGF-beta1 (R&D Systems)
- half maximal (ka) binding of recombinant TGF-beta to R2X [10]: 17 ± 3 ng/mL
- apparent ka for TGF-beta binding to R2X [11]: 42 ± 6 ng/mL
- MvLu cell ID50 ([12]; 3 mM total cholesterol lipoprotein added, maximal): 0.52 ± 0.08 ng/mL
- MvLu cell ID50 ([12]; no lipoprotein, n=6): 0.12 ± 0.04 ng/mL
